These are literature values, as cited in patent US8188123B2, “(Pyrrolidin-2-yl)phenyl derivatives” (priority 2008, dated 2012).

Structures are written as SMILES. Like-named read-outs stand apart in the source and are kept apart here.

For series [1], the system named is ectopic discharges in A-beta and A-delta fibres. The conditions noted are these: nerve injury.
Series [2] relates to mechanical allodynia. The conditions noted are these: intraperitoneal administration; Chung/von Frey.
The next series relates to allodynia. The conditions noted are these: rat CFA model of inflammatory pain.
Another series has as its system spontaneous pain. The conditions noted are these: rat mild thermal injury model.
The subject of series [3] is mechanical allodynia. The conditions noted are these: local administration to the sciatic nerve 4 h after surgery; Brennan model.
In series [4] the test system is nerve injured myelinated DRG.

Regarding `CCN(c1ccccc1)c1cc(=NC)n(C)c(C)n1.Cl` [ZD 7288], in series [1], the “firing frequency of ectopic discharges” value is “reduced the firing frequency of ectopic discharges in A-beta and A-delta fibres, without causing conduction block”. Further, the figures for the mechanical allodynia result in the series on mechanical allodynia [2] and with mechanical allodynia [3] were “dose-dependently reverses mechanical allodynia” and “attenuates mechanical allodynia”, respectively. For the same molecule, in the series on allodynia, the allodynia result is recorded as “suppresses allodynia”. Further, the spontaneous pain entry with spontaneous pain was “blocks spontaneous pain”. In series [4], the spontaneous activity result is given as “reduces spontaneous activity”.
